Legend:
b-Raf (V600E) = target: T1, b-Raf (V600E) (Homo sapiens, UniProt P15056, V600E); experiment: In vitro Raf activity determination (Alpha Screen, biotinylated kinase-dead MEK1 substrate), B-Raf; format: biochemical; details: b-Raf (V600E) approximately 4 pM; ATP 10 μM; pre-incubation 60 minutes; reaction 3 hours at room temperature
T1 construct: made in house
Description: (§1) Full length MEK1 with an inactivating K97R ATP binding site mutation is utilized as a RAF substrate. The MEK1 cDNA was subcloned with an N-terminal (his)6 tag into a vector for E. Coli expression. The MEK1 substrate was purified from E. Coli lysate by nickel affinity chromatography followed by anion exchange. The final MEK1 preparation was biotinylated (Pierce EZ-Link Sulfo-NHS-LC-Biotin) and concentrated.
(§2) Assay Materials: Assay buffer is 50 mM Tris, pH 7.5, 15 mM MgCl2, 0.01% Bovine Serum Albumin (BSA) and 1 mM dithiothreitol (DTT); Stop buffer is 60 mM ethylenediaminetetraacetic acid (EDTA) and 0.01% Tween® 20; b-Raf (V600E), active; biotinylated Mek, kinase dead; Alpha Screen detection kit (available from PerkinElmer™, #6760617R); Anti phospho-MEK1/2 (available from Cell Signaling Technology, Inc. #9121); 384 well low volume assay plates (White Greiner® plates).
(§3) Assay conditions: b-Raf (V600E) approximately 4 pM; c-Raf approximately 4 nM; biotinylated Mek, kinase dead approximately 10 nM; ATP 10 μM for BRAF (V600E) and 1 μM for CRAF; Pre-incubation time with compounds 60 minutes at room temperature; Reaction time 1 or 3 hours at room temperature.
(§4) Assay protocol: Raf and biotinylated Mek (kinase dead) were combined at 2× final concentrations in assay buffer (50 mM Tris, pH 7.5, 15 mM MgCl2, 0.01% BSA and 1 mM DTT) and dispensed […] per well in assay plates (Greiner white 384 well assay plates #781207) containing […] of 40× of a Raf kinase inhibitor test compound diluted in 100% DMSO. The plate was incubated for 60 minutes at room temperature. The Raf kinase activity reaction was started by the addition of […] per well of 2×ATP diluted in assay buffer. After 3 hours (b-Raf(V600E)) or 1 hour (c-Raf). The reactions were stopped and the phosphorylated product was measured using a rabbit anti-p-MEK (Cell Signaling, #9121) antibody and the Alpha Screen IgG (ProteinA) detection Kit (PerkinElmer #6760617R), by the addition of […] to the well of a mixture of the antibody (1:2000 dilution) and detection beads (1:2000 dilution of both beads) in Stop/bead buffer (25 mM EDTA, 50 mM Tris, pH 7.5, 0.01% Tween20). The additions were carried out under dark conditions to protect the detection beads from light. A lid was placed on top of the plate and incubated for 1 hour at room temperature, after which the luminescence was read on a PerkinElmer Envision instrument. The concentration of each compound for 50% inhibition (IC50) was calculated by non-linear regression using XL Fit data analysis software.

C-RAF = target: T2, C-RAF (Homo sapiens, UniProt P04049, Y340E/Y341E); experiment: In vitro Raf activity determination (Alpha Screen, biotinylated kinase-dead MEK1 substrate), C-Raf; format: biochemical; details: c-Raf approximately 4 nM; ATP 1 μM; pre-incubation 60 minutes; reaction 1 hour at room temperature
T2 construct: His tag (implied by nickel chromatography) (cleaved yes); StrepII tag (cleaved yes); made in house; host or cells: Sf9 insect cells (baculovirus), CRAF and h14-3-3 zeta co-expressed; MEK1 substrate from E. coli
Source text: CRAF cDNA was subcloned as full length protein, with Y340E and Y341E activating mutations, into a baculovirus expression vector for Sf9 insect cell expression. h14-3-3 zeta cDNA was subcloned into a baculovirus expression vector for SF9 insect cell expression. Sf9 cells co-expressing both proteins were lysed and subjected to immobilized nickel chromatography and eluted with Imidazole. A second column (StrepII binding column) was used and eluted with desthiobiotin. Protein Tags were removed using Prescission enzyme and the protein was further purified using a flowthrough step to remove tags.
C-Raf TR refers to a truncated C-Raf protein, a Δ1-324 deletion mutant. C-Raf FL refers to the full-length C-Raf protein.
as §1, §2, §3, §4

T1 sequence (P15056 whole entry V600E): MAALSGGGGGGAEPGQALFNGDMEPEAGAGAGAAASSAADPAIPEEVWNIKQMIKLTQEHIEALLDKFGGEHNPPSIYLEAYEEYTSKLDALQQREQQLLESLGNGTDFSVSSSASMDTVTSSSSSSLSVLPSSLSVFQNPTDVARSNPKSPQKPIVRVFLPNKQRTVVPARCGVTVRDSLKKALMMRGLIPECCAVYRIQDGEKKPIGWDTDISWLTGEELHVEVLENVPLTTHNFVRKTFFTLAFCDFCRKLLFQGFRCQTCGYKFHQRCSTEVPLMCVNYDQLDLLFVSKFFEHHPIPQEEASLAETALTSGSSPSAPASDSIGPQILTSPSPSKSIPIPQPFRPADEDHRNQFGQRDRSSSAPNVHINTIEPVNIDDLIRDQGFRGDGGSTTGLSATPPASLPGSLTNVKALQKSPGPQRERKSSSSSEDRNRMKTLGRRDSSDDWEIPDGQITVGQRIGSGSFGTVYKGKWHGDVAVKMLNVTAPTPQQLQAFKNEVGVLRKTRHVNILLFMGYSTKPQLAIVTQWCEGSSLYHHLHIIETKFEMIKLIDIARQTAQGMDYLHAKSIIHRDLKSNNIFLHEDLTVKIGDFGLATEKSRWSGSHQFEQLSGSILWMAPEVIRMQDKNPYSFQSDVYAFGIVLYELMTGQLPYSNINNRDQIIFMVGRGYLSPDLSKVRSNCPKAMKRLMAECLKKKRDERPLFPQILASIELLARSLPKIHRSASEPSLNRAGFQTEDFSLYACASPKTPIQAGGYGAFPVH
T2 sequence (P04049 whole entry Y340E/Y341E): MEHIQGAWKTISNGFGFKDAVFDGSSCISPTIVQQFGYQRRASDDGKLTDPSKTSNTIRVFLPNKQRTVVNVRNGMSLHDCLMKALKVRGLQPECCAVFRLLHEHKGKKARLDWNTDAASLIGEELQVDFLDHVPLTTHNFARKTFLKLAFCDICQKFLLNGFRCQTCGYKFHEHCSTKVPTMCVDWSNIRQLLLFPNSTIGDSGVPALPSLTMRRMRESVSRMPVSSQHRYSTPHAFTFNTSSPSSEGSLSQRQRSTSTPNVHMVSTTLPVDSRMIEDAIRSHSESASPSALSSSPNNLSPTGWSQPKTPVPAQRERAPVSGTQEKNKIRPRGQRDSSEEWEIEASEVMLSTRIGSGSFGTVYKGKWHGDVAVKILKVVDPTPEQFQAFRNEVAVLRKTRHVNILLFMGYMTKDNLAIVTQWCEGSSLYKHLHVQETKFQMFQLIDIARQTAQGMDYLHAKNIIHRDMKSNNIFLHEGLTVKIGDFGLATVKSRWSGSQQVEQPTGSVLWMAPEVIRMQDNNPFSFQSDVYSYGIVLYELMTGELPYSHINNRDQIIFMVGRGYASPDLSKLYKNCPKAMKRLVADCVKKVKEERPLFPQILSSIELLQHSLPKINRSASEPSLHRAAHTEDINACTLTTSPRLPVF
T2 sequence (P63104 whole entry partner): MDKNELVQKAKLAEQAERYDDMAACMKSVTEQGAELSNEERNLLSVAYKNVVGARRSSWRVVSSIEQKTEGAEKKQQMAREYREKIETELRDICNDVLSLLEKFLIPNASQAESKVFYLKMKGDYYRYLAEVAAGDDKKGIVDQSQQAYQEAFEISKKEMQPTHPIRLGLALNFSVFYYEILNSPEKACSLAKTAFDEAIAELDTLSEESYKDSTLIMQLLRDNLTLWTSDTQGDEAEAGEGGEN

| Compound | IC50 (b-Raf (V600E)) [nM] | IC50 (C-RAF) [nM] |
| --- | --- | --- |
| Cc1ncc(NC(=O)c2ccnc(C(C)(C)C#N)c2)cc1-c1cnc(NC2CCOCC2)c(C#N)c1 [Example 72, N-(5′-cyano-2-methyl-6′-((tetrahydro-2H-pyran-4-yl)amino)-[3,3′-bipyridin]-5-yl)-2-(2-cyanopropan-2-yl)isonicotinamide] | 6.47 | 1.53 |
| Cc1ncc(NC(=O)c2cccc(C(F)(F)F)c2)cc1-c1cnc(N2CCOCC2)c(C#N)c1 [Example 66, N-(5′-cyano-2-methyl-6′-morpholino-[3,3′-bipyridin]-5-yl)-3-(trifluoromethyl) benzamide] | 0.852 | 0.203 |
| Cc1ncc(NC(=O)c2ccnc(C(C)(C)C#N)c2)cc1-c1cnc(NC2CC2)c(C#N)c1 [Example 82, N-(5′-cyano-6′-(cyclopropylamino)-2-methyl-[3,3′-bypyridin]-5-yl)-2-(2-cyanopropan-2-yl)isonicotinamide] | 10.8 | 2.04 |
| Cc1ncc(NC(=O)c2ccnc(C(F)(F)F)c2)cc1-c1cnc(N2CCS(=O)(=O)CC2)c(C#N)c1 [Example 86, N-(5′-cyano-6′-(1,1-dioxidothiomorpho-lino)-2-methyl-[3,3′-bipyridin]-5-yl)-2-(trifluoromethyl) isonicotinamide] | 2.98 | 0.438 |
| Cc1ncc(NC(=O)c2ccnc(C(F)(F)F)c2)cc1-c1cnc(N2CC(O)C2)c(C#N)c1 [Example 69, N-(5′-cyano-6′-(3-hydroxyazetidin-1-yl)-2-methyl-[3,3′-bipyridin]-5-yl)-2-(trifluoromethyl) isonicotinamide] | 2.56 | 0.46 |
| Cc1ncc(NC(=O)c2ccnc(C(C)(C)C#N)c2)cc1-c1cnc(NC2CCOC2)c(C#N)c1 (stereo in doubt) [Example 78a, (S)-N-(5′-cyano-2-methyl-6′-((tetrahydrofuran-3-yl)amino)-[3,3′-bipyridin]-5-yl)-2-(2-cyanopropan-2-yl)isonicotinamide] | 12.3 | 3.16 |
| Cc1ncc(NC(=O)c2cccc(C(F)(F)F)c2)cc1-c1cnc(-c2ccncc2)c(C#N)c1 [Example 106, N-(5′-cyano-2-methyl-[3,3′:6′,4″- terpyridin]-5-yl)-3-(trifluoromethyl) benzamide] | 2.19 | 0.391 |
| Cc1ncc(NC(=O)c2ccnc(C(F)(F)F)c2)cc1-c1cnc(-c2cn(C)nc2C)c(C#N)c1 [Example 111, N-(5′-cyano-6′-(1,3-dimethyl-1H-pyrazol-4-yl)-2-methyl-[3,3′-bipyridin]-5-yl)-2-(trifluoromethyl) isonicotinamide] | 1.46 | 0.397 |
| Cc1ccc(NC(=O)c2ccnc(C(F)(F)F)c2)cc1-c1cnc(NC2CCOCC2)c(C#N)c1 [Example 61, N-(3-(5-cyano-6-((tetrahydro-2H-pyran-4-yl)amino)pyridin-3-yl)-4-methylphenyl)-2-(trifluoromethyl) isonicotinamide] | 0.509 | 0.194 |
| Cc1ncc(NC(=O)c2ccnc(C(C)(C)C#N)c2)cc1-c1cnc(OC2COC2)c(C#N)c1 [Example 94, N-(5′-cyano-2-methyl-6′-(oxetan-3-yloxy)-[3,3′-bipyridin]-5-yl)-2-(2-cyanopropan-2-yl)isonicotinamide] | 23.6 | 5.98 |

Next, values leading:

| IC50 (b-Raf (V600E)) [nM] | IC50 (C-RAF) [nM] | Compound |
| --- | --- | --- |
| 278 | 38.4 | Cc1cc(C(=O)Nc2ccc(C)c(-c3cnc(N(C)C)c(C#N)c3)c2)n(C)n1 [Example 254, N-(3-(5-cyano-6-(dimethylamino)pyridin-3-yl)-4-methylphenyl)-1,3-dimethyl-1H-pyrazole-5-carboxamide] |
| 3.87 | 2.23 | Cc1ncc(NC(=O)c2cc(C(C)(C)O)ccn2)cc1-c1cnc(N2CCOCC2)c(C#N)c1 [Example 234, N-(5′-cyano-2-methyl-6′-morpholino-[3,3′-bipyridin]-5-yl)-4-(2-hydroxypropan-2-yl)picolinamide] |
| 0.901 | 0.125 | Cc1ccc(NC(=O)c2cccc(C(F)F)c2)cc1-c1cnc(N2CCNCC2)c(C#N)c1 [Example 163, N-(3-(5-cyano-6-(piperazin-1-yl)pyridin-3-yl)-4-methylphenyl)-3-(difluoromethyl) benzamide] |
| 1.16 | 0.153 | Cc1ncc(NC(=O)c2ccnc(C(F)F)c2)cc1-c1cnc(N2CCOCC2)c(C#N)c1 [Example 136, N-(5′-cyano-2-methyl-6′-morpholino-[3,3′-bipyridin]-5-yl)-2-(difluoromethyl) isonicotinamide] |
| 1.49 | 0.197 | Cc1ccc(NC(=O)c2cccc(S(C)(=O)=O)c2)cc1-c1cnc(N2CCNCC2)c(C#N)c1 [Example 159, N-(3-(5-cyano-6-(piperazin-1-yl)pyridin-3-yl)-4-methylphenyl)-3-(methylsulfonyl) benzamide] |
| 1.5 | 0.279 | Cc1ccc(NC(=O)c2cc(C(C)(F)F)ccn2)cc1-c1cnc(N2CCOCC2)c(C#N)c1 [Example 241, N-(3-(5-cyano-6-morpholinopyridin-3-yl)-4-methylphenyl)-4-(1,1-difluoroethyl) picolinamide] |
| 3.18 | 0.539 | Cc1ncc(NC(=O)c2cc(C(C)(C)F)ccn2)cc1-c1cnc(N2CCOCC2)c(C#N)c1 [Example 242, N-(5′-cyano-2-methyl-6′-morpholino-[3,3′-bipyridin]-5-yl)-4-(2-fluoropropan-2-yl)picolinamide] |
| 2.48 | 0.522 | CCn1cc(C(=O)Nc2ccc(C)c(-c3cnc(N4CCNCC4)c(C#N)c3)c2)cc(C(F)(F)F)c1=O [Example 162, N-(3-(5-cyano-6-(piperazin-1-yl)pyridin-3-yl)-4-methylphenyl)-1-ethyl-6-oxo-5-(trifluoromethyl)-1,6-dihydropyridine-3-carboxamide] |
| 6.78 | 1.07 | Cc1ccc(NC(=O)c2ccnc(S(C)(=O)=O)c2)cc1-c1cnc(N2CC(C)(O)C2)c(C#N)c1 [Example 217, N-(3-(5-cyano-6-(3-hydroxy-3-methylazetidin-1-yl)pyridin-3-yl)-4-methylphenyl)-2-(methylsulfonyl) isonicotinamide] |
| 11.2 | 1.15 | Cc1ncc(NC(=O)c2ccnc(S(C)(=O)=O)c2)cc1-c1cnc(N(C)C)c(C#N)c1 [Example 271, N-(5′-cyano-6′-(dimethylamino)-2-methyl-[3,3′-bipyridin]-5-yl)-2-(methylsulfonyl) isonicotinamide] |
| 9.92 | 1.76 | Cc1ncc(NC(=O)c2ccnc(C3CC3)c2)cc1-c1cnc(N2CC(C)(O)C2)c(C#N)c1 [Example 188, N-(5′-cyano-6′-(3-hydroxy-3-methylazetidin-1-yl)-2-methyl-[3,3′-bipyridin]-5-yl)-2-cyclopropyl-isonicotinamide] |
| 15.8 | 1.96 | Cc1ncc(NC(=O)c2cc(C(C)(C)C#N)ccn2)cc1-c1cnc(N2CC(C)(O)C2)c(C#N)c1 [Example 231, N-(5′-cyano-6′-(3-hydroxy-3-methylazetidin-1-yl)-2-methyl-[3,3′-bipyridin]-5-yl)-4-(2-cyanopropan-2-yl)picolinamide] |
| 1.09 | 0.199 | Cc1ccc(NC(=O)c2ccnc(C3CC3)c2)cc1-c1cnc(N2CCNCC2)c(C#N)c1 [Example 158, N-(3-(5-cyano-6-(piperazin-1-yl)pyridin-3-yl)-4-methylphenyl)-2-cyclopropyl isonicotinamide] |
